In patent US12414960B2, “Analogues of oleuropein and oleacein and uses thereof” (Attica Sciences Ltd., priority 2020, dated 2025):
pIC50: −log10 of the molar value. One block for each compound: values may come before it.

Experiments:
TNF-α = test: ELISA of TNF-α in PMA/LPS-treated THP-1 cells; assay type: cell-based, human; details: THP-1, PMA then LPS 100 ng/ml 24 hours, 5 uM compound added 2 hours before LPS
Method: (§1) Human monocytes (THP-1, ATCC) were cultured in RPMI 1640 media supplemented with HEPES buffer (10 mM), sodium pyruvate (1 mM), glucose (4.5 g/L), fetal bovine serum (10%), penicillin (100 U/mL), streptomycin (100 μg/mL), and 2-mercaptoethanol (0.05 mM). THP-1 cells were treated with PMA (100 ng/ml) for 48 hours and then washed and rested for 24 hours in PMA-free media. These cells were treated with LPS (100 ng/ml) for 24 hours in the presence or absence of 5 uM of […] compounds (added 2 hours before LPS). Cell culture supernatants were collected and IL-1β (cat. No DLB50, R&D Systems), TNF-α (cat. no. DTA00D, R&D Systems) and IL-6 (cat. No D6050, R&D Systems) protein levels were evaluated by ELISA assay.

pACLY (S455) = test: ELISA of pACLY (S455) / ACLY enzymatic activity in PANC-1 cells; assay type: cell-based, human; details: 5 μM
Method: ELISA assay was used to evaluate the effect of GS compounds on protein activity levels in PANC-1 cancer cells. PANC-1 cells were serum-starved overnight and then treated with rIGF1 (100 ng/mL) for 24 hours, with or without GS27 (5 μM). The levels of the following proteins were evaluated by ELISA assay: a) p70 S6 (T389) (cat no. 54164C, Cell Signaling); b) pAKT (S473), (cat no. 80895, Cell Signaling); c) pACLY (S455), (cat no. okag1672, Avivasysbio); d) pAMPK (T172) (cat no. 7959C, Cell Signaling) and e) p65/NFKB (S536), (cat no. 7173, Cell Signaling).
PANC-1 is a human pancreatic ductal adenocarcinoma cell line derived from the carcinoma of a person.
The molecular mechanism of action of GS27, a compound that has exerted potent anti-cancer activity in different cancer cell lines including pancreatic cancer cells, was investigated. Oleacein has been implicated to have anti-inflammatory and metabolic effects, thus the potential effects of GS27 in different metabolic and inflammatory pathways were evaluated. Specifically, the protein levels of p70 S6 (T389), pAKT (S473), pACLY (S455), pAMPK (T172) and p65/NFKB (S536) were evaluated by ELISA assay in PANC-1 pancreatic cancer cells treated with 5 μM GS27. GS27 reduced p70 S6 and AKT phosphorylation levels, while it increased AMPK phosphorylation.
The effects of different GS compounds on ACLY enzymatic activity were evaluated by ELISA assay in PANC-1 pancreatic cancer cells. […] This finding is unexpected, since GS21 has a very similar structure with GS27, with the only difference being the presence of an oxygen atom in ester GS21 instead of a sulfur atom in thioester GS27.

[1] = Deoxyribose degradation assay (hydroxyl radical scavenging); assay type: biochemical; details: NS = not statistically significant
In short: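 Hydroxyl radicals from Fenton's reaction degrade 2-deoxyribose. Scavenging is measured as inhibition of this oxidation, read spectrophotometrically as pink chromogen absorbance at 532 nm.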

IL-6 = test: ELISA of IL-6 in PMA/LPS-treated THP-1 cells; assay type: cell-based, human; details: THP-1, PMA then LPS 100 ng/ml 24 hours, 5 uM compound added 2 hours before LPS
Method: as §1

IL-1β = test: ELISA of IL-1β in PMA/LPS-treated THP-1 cells; assay type: cell-based, human; details: THP-1, PMA then LPS 100 ng/ml 24 hours, 5 uM compound added 2 hours before LPS
Method: as §1

[2] = tested on: MCF-7 ER+ breast cancer cells; test: XTT cell growth assay, MCF-7 ER+; assay type: cell-based, human; details: NS = not statistically significant
In short: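 MCF-7 ER+ cells grown 24 h in DMEM, then given 5, 10 or 50 μM compound in serum-free DMEM for 24 h. XTT reagent added for 4 h. Absorbance read at 450 nm with 630 nm reference; serum-free DMEM alone as negative control.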

[3] = tested on: LNCaP prostate cancer cells; details: literature; cited from earlier work
ACLY = ACLY (Homo sapiens, UniProt P53396); details: description of the Tocris compound; read-out: IC50 as ACLY inhibitor; cited from earlier work
HepG2 liver cancer tumor = test: HepG2 xenograft mouse model; assay type: in vivo, nu/nu mice; details: 20 mg/kg i.p. every 5 days, until 20 days post-treatment
Method: The effect of GS27 on liver cancer tumor growth in mice was evaluated in a HepG2 xenograft mouse model. HepG2 is a human liver cancer cell line, obtained from ATCC (cat. No HB-8065). Since hepatocellular carcinoma is often treated with the chemotherapeutic agent doxorubicin and embolization, results were compared to those obtained with doxorubicin.
Xenograft tumors were generated by injecting HepG2 liver cancer cells (2.5×10^6) into the right flank of female nu/nu mice (Charles River Laboratories). All mice developed tumors in 10 days with size of approximately 100 mm3. For each experiment, mice were randomly distributed into equal groups (4 mice per group) that were untreated, or treated by intraperitoneal injections every 5 days with 20 mg/kg GS27 or doxorubicin. Tumor volume (average, SD) was evaluated until 20 days post-treatment.

[4] = after olive oil consumption, literature; cited from earlier work

Sequence of ACLY (P53396 whole entry): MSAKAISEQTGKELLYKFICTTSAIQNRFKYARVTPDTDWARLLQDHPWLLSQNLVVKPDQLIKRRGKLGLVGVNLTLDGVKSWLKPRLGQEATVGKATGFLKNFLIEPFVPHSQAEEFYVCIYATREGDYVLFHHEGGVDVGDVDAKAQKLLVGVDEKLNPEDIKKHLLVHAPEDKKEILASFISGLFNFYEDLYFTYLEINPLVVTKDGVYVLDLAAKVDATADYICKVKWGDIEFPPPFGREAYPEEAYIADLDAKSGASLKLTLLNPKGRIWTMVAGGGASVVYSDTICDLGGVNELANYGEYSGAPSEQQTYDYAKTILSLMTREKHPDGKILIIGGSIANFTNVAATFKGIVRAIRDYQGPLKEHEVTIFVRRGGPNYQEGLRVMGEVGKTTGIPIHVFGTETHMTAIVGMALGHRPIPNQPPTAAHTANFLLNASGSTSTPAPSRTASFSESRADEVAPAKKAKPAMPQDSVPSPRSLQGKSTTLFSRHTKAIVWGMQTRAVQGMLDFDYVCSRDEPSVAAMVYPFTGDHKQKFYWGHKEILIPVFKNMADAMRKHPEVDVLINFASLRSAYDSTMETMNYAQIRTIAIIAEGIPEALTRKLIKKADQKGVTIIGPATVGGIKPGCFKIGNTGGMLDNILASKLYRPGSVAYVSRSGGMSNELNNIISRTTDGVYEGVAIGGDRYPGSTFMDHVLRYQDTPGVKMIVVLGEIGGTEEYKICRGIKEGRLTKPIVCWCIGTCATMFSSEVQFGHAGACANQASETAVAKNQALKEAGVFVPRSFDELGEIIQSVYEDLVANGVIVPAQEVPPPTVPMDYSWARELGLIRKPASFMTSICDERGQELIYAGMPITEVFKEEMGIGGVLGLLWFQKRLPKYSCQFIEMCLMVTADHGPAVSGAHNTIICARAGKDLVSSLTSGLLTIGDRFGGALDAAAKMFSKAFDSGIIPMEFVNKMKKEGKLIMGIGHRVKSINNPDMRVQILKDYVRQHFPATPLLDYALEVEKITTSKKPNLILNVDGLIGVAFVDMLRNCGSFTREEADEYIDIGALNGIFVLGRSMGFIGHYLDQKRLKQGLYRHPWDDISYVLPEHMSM

Deoxyribose Degradation Assay IC50 [1]: 16.2 μg extract/mL
Structure (SMILES): C/C=C(/C=O)[C@@H](CC=O)CC(=O)OCc1cc2ccccc2[nH]1 [GS25, (3S,4E)-4-formyl-3-(2-oxoethyl)-4-hexenoic acid (1H-indol-2-yl)methyl ester]
TNF-α protein levels (TNF-α): better effect on the suppression
ACLY enzymatic activity (ELISA) (pACLY (S455)): small effect
IL-6 protein levels (IL-6): effective for reducing
IL-1β protein levels (IL-1β): reducing substantially
Effectiveness to suppress MCF7 cell growth (cell growth inhibition) ([2]; 50 uM, 24 h): best efficacy
inhibition at 50 µM ([2]; Homo sapiens, MCF7, 24 h, read-out: Effectiveness to suppress MCF7 cell growth (cell growth inhibition)): 88.4%

Structure (SMILES): CNC(=O)c1ccc(N2C(=S)N(c3ccc(C#N)c(C(F)(F)F)c3)C(=O)C2(C)C)cc1F [enzalutamide]
concentration found to reduce LNCaP prostate cancer cell growth [3]: 10 µM

Structure (SMILES): COc1ccc(-c2ccccc2)cc1NS(=O)(=O)c1cc(Cl)cc(Cl)c1O [BMS303141]
pIC50 (ACLY): 6.89

Structure (SMILES): COc1cccc2c1C(=O)c1c(O)c3c(c(O)c1C2=O)C[C@@](O)(C(=O)CO)C[C@@H]3O[C@H]1C[C@H](N)[C@H](O)[C@H](C)O1 [doxorubicin, reference compound]
reduction in the tumor size, HepG2 liver cancer (HepG2 liver cancer tumor): 13%

Structure (SMILES): OCCc1ccc(O)c(O)c1 [Hydroxytyrosol]
time of peak plasma levels after ingestion [4]: 1 h

Structure (SMILES): OCCc1ccc(O)cc1 [tyrosol]
time of peak plasma levels after ingestion [4]: 1 h
